Test results as given in ChEMBL document CHEMBL4422615, “Novel non-xanthine antagonist of the A2B adenosine receptor: From HTS hit to lead structure” (Eur J Med Chem, 2019).
Calls of active or inactive are those of the source. The rule behind the calls is not given here.

Assays:
Adenosine receptor A2b = target: T1, Adenosine receptor A2b (Mus musculus, UniProt Q60614); assay: Antagonist activity at recombinant mouse A2B adenosine receptor expressed in CHO cells after 3 to 4 hrs by luciferase reporter gene assay; format: cell-based
T1 sequence (Q60614 whole entry): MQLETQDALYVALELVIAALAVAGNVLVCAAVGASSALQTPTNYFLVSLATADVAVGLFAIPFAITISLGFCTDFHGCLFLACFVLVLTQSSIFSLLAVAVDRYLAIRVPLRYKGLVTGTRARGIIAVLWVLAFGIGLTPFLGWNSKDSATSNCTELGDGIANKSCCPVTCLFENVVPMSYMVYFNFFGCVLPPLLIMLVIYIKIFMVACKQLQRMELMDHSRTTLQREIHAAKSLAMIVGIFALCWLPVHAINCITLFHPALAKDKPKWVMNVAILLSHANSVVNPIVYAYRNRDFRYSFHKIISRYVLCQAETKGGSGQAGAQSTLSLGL

Adenosine receptor A1 = target: T2, Adenosine receptor A1 (Homo sapiens, UniProt P30542); assay: Displacement of [3H]DPCPX from human A1 adenosine receptor expressed in CHO cell membranes after 60 mins by radioligand displacement assay
T2 sequence (P30542 whole entry): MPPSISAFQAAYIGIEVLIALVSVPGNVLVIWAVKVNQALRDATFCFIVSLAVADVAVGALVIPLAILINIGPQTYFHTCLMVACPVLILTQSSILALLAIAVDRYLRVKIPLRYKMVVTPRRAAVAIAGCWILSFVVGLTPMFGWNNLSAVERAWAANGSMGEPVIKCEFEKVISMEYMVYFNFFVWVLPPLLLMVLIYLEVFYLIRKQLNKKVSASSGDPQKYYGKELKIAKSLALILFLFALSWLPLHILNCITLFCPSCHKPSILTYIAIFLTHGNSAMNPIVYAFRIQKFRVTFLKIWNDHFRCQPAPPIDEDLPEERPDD

[1] = MRT in dog at 0.3 mg/kg, iv administered as infusion for 15 mins by HPLC-MS/MS analysis; format: ADME, organism-based, Canis lupus familiaris; details: in vivo
[2] = Dose normalized AUC in dog at 1 mg/kg, po for 15 mins by HPLC-MS/MS analysis; format: ADME, organism-based, Canis lupus familiaris; details: in vivo, 0.25 h
[3] = Dose normalized AUC in mouse at 0.3 mg/kg, iv administered as bolus dose by HPLC-MS/MS analysis; format: ADME, organism-based; details: in vivo
[4] = (§1) Anti-inflammatory activity in human LL29 cells assessed as reduction in NECA-induced IL6 level after 24 hrs by ELISA; format: functional, cell-based
Homo sapiens = organism: Homo sapiens; assay: as §1; format: functional, cell-based
[5] = Intrinsic clearance in rat hepatocytes by MS/MS analysis; format: ADME, cell-based, Hepatocyte
Mus musculus [6] = assay: Antifibrotic activity in silica-induced C57BL/6J mouse pulmonary fibrosis model assessed as reduction in TGF-beta level in lung tissue homogenate at 100 to 500 mg/kg, bid administered via gavage treated from day 1 until day 7 after silica application by ELISA; format: functional, organism-based
[7] = Toxicity in silica-induced C57BL/6J mouse pulmonary fibrosis model assessed as change in body weight at 100 to 500 mg/kg, bid administered via gavage treated from day 1 until day 7 after silica application; format: organism-based; details: in vivo, po
[8] = Dose normalized AUC in mouse at 1 mg/kg, iv administered as bolus dose by HPLC-MS/MS analysis; format: ADME, organism-based; details: in vivo
[9] = MRT in mouse at 0.3 mg/kg, iv administered as bolus dose by HPLC-MS/MS analysis; format: ADME, organism-based; details: in vivo
Mus musculus [10] = assay: Antifibrotic activity in silica-induced C57BL/6J mouse pulmonary fibrosis model assessed as reduction in total number of cells in BALF at 100 to 500 mg/kg, bid administered via gavage treated from day 1 until day 7 after silica application; format: functional, organism-based
Mus musculus [11] = assay: Antifibrotic activity in FITC-induced C57BL/6J mouse pulmonary fibrosis model assessed as reduction in IL-6 level in BALF homogenate at 100 to 500 mg/kg, bid administered via gavage pretreated for 45 mins before FITC addition until 72 hrs after FITC application by ELISA; format: functional, organism-based
[12] = Clearance in rat plasma at 0.3 mg/kg, iv administered as bolus dose by HPLC-MS/MS analysis; format: ADME, organism-based

IC50 (Adenosine receptor A2b): 0.4 µM
Ki (Adenosine receptor A1): > 1 µM
MRT [1]: 4.9 h
AUC/dose [2]: 2 kg·h/L
AUC/dose [3]: 1.6 kg·h/L
IC50 [4]: 0.185 µM
CLhep predicted [5]: 23.3 mL/min/kg
AUC/dose [8]: 1 kg·h/L
MRT [9]: 0.65 h
clearance [12]: 18.3 mL/min/kg
Structure (SMILES): CCn1c(=O)c2c(C)c(C(=O)N3CCC(O)CC3)sc2n(CCC(F)(F)F)c1=O
Activity (Homo sapiens): Dose-dependent effect
Activity (Mus musculus [6]): Active
Activity [7]: Non-Toxic
Activity (Mus musculus [10]): inactive
Activity (Mus musculus [11]): inactive
